Legend:
[1] = system: normal NK cells expanded with K562-aAPC; assay: percent inhibition of viability; higher = more inhibition; settings: 72 h, IL-2 2.5 ng/mL
Protocol: (§1)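 Drug sensitivity and resistance testing on K562-aAPC-expanded normal NK cells: 5 concentrations (10-fold steps over a 10,000-fold range), 72 h at 37 °C, viability by CellTiter-Glo normalised to DMSO and benzethonium chloride controls; DSS from the fitted curve.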

NK-92 (IL-2 2.5 ng/mL) [2] = assay: drug sensitivity score (DSS) (DSS units); higher = more sensitive; extreme values may be limits of the assay; settings: 72 h
KAI3 (IL-2 2.5 ng/mL) [3] = assay: as above; settings: 72 h
[4] = system: normal primary NK cells, pool 1 (3 donors), resting (IL-2 0 ng/mL); assay: as above; settings: 72 h
SNK-6 (IL-2 2.5 ng/mL) [5] = assay: as above; settings: 72 h
NKL (IL-2 2.5 ng/mL) [6] = assay: as above; settings: 72 h
YT (IL-2 2.5 ng/mL) [7] = assay: as above; settings: 72 h
DERL-7 (IL-2 2.5 ng/mL) [8] = assay: as above; settings: 72 h
KHYG-1 (IL-2 2.5 ng/mL) [9] = assay: as above; settings: 72 h
[10] = system: normal primary NK cells, pool 3 (3 donors) (IL-2 2.5 ng/mL); assay: as above; settings: 72 h
IMC-1 (IL-2 20 ng/mL) [11] = assay: as above; settings: 72 h
[12] = system: normal primary NK cells, pool 1 (3 donors) (IL-2 2.5 ng/mL); assay: as above; settings: 72 h
NK-YS (IL-2 2.5 ng/mL) [13] = assay: as above; settings: 72 h
[14] = system: normal primary NK cells, pool 2 (3 donors) (IL-2 2.5 ng/mL); assay: as above; settings: 72 h
[15] = system: normal NK cells expanded with K562-aAPC; assay: as above; settings: 72 h; IL-2 2.5 ng/mL
Protocol: as §1

NK-92 (IL-2 2.5 ng/mL) [16] = assay: percent inhibition of viability; higher = more inhibition; settings: 72 h
KAI3 (IL-2 2.5 ng/mL) [17] = assay: as above; settings: 72 h
[18] = system: normal primary NK cells, pool 1 (3 donors), resting (IL-2 0 ng/mL); assay: as above; settings: 72 h
SNK-6 (IL-2 2.5 ng/mL) [19] = assay: as above; settings: 72 h
NKL (IL-2 2.5 ng/mL) [20] = assay: as above; settings: 72 h
YT (IL-2 2.5 ng/mL) [21] = assay: as above; settings: 72 h
DERL-7 (IL-2 2.5 ng/mL) [22] = assay: as above; settings: 72 h
KHYG-1 (IL-2 2.5 ng/mL) [23] = assay: as above; settings: 72 h
[24] = system: normal primary NK cells, pool 3 (3 donors) (IL-2 2.5 ng/mL); assay: as above; settings: 72 h
IMC-1 (IL-2 20 ng/mL) [25] = assay: as above; settings: 72 h
[26] = system: normal primary NK cells, pool 1 (3 donors) (IL-2 2.5 ng/mL); assay: as above; settings: 72 h
NK-YS (IL-2 2.5 ng/mL) [27] = assay: as above; settings: 72 h
[28] = system: normal primary NK cells, pool 2 (3 donors) (IL-2 2.5 ng/mL); assay: as above; settings: 72 h

O=C(O)CC[C@H]1CC[C@@](c2cc(F)ccc2F)(S(=O)(=O)c2ccc(Cl)cc2)CC1 [MK-0752] (max concentration tested 1000 nM)
percent inhibition of viability [%]
Settings	0.1 nM	1 nM	10 nM	100 nM	1000 nM
DERL-7 (IL-2 2.5 ng/mL) [22]	-0.82	-1.19	-2.01	-1.84	0.38
IMC-1 (IL-2 20 ng/mL) [25]	-1.19	-1.62	3.7	1.88	9.87
KAI3 (IL-2 2.5 ng/mL) [17]	-5.58	-3.61	-11.2	-10.3	10.8
KHYG-1 (IL-2 2.5 ng/mL) [23]	2.68	-1.92	2.12	-1.77	2.96
NK-92 (IL-2 2.5 ng/mL) [16]	-10.8	-16	2.19	-18.6	9.52
NK-YS (IL-2 2.5 ng/mL) [27]	1.77	3.33	4.23	-0.52	12.9
NKL (IL-2 2.5 ng/mL) [20]	-5.92	-6.47	1.23	0.27	-0.85
SNK-6 (IL-2 2.5 ng/mL) [19]	-1.33	10	0.79	21.6	11.5
YT (IL-2 2.5 ng/mL) [21]	-5.65	-0.71	-6.38	-14.1	8.32
[1]	-3.97	0.91	0.33	10.8	16.2
[18]	-1.4	-17	-8.36	-13.1	-7.22
[24]	-11.6	-7.52	0.99	-5.48	3.93
[26]	1.14	-1.74	-0.83	-10.7	3.87
[28]	-9.74	-4.15	-0.03	-3.82	-3.17

Settings	drug sensitivity score
DERL-7 (IL-2 2.5 ng/mL) [8]	0
IMC-1 (IL-2 20 ng/mL) [11]	0
KAI3 (IL-2 2.5 ng/mL) [3]	0
KHYG-1 (IL-2 2.5 ng/mL) [9]	0
NK-92 (IL-2 2.5 ng/mL) [2]	0
NK-YS (IL-2 2.5 ng/mL) [13]	0.08
NKL (IL-2 2.5 ng/mL) [6]	0
SNK-6 (IL-2 2.5 ng/mL) [5]	1.21
YT (IL-2 2.5 ng/mL) [7]	0
[4]	0
[10]	0
[12]	0
[14]	0
[15]	1.1

— the supplement of paper PMC5908809
